In ChEMBL document CHEMBL5726766, “Sulfonamide compounds as voltage-gated sodium channel modulators” (2019):

Test: (§1) Membrane potential dye assay: HEK-293 cells overexpressing the channel of interest were seeded in a 96-well plate at a density of 30000 cells/well and incubated at 37° C./5% CO2 for 48 hr. The assay was carried out using the Red Membrane Potential Dye (Molecular Devices) following the manufacturer's instructions. Briefly, the cells were incubated with 1× red membrane potential dye for 1.5 hour. The cells were then treated with various concentrations of the test compounds for 15-20 min followed by depolarization with 10-30 μM Veratridine. The fluorescence was read following excitation at 510-545 nm and emission at 565-625 nm in FLIPR. The “max-min” fluorescence values were used to calculate the % inhibition.
Conditions: HEK293

Compound	IC50
O=S(=O)(Nc1ncccn1)c1ccc2c(c1)OCC[C@@H]2c1ccc(C(F)(F)F)cc1O[C@H]1CCOC1	0.038 µM

Test: as §1
Conditions: HEK293

Compound	IC50
O=S1(=O)CCN(c2cc(C(F)(F)F)ccc2[C@H]2CCOc3cc(S(=O)(=O)Nc4ccncn4)ccc32)CC1 (racemic)	> 10 µM
O=S1(=O)CCN(c2cc(C(F)(F)F)ccc2[C@H]2CCOc3cc(S(=O)(=O)Nc4cccc(F)n4)ccc32)CC1 (racemic)	> 10 µM
O=S1(=O)CCN(c2cc(C(F)(F)F)ccc2[C@H]2CCOc3cc(S(=O)(=O)Nc4ncc(F)cn4)ccc32)CC1 (racemic)	> 10 µM
O=S1(=O)CCN(c2cc(C(F)(F)F)ccc2[C@H]2CCOc3cc(S(=O)(=O)Nc4cccnn4)ccc32)CC1 (racemic)	> 10 µM
O=S(=O)(Nc1ccncn1)c1ccc2c(c1)OCC[C@@H]2c1ccc(C(F)(F)F)cc1Cl (racemic)	> 10 µM
COCCc1cc(C(F)(F)F)ccc1[C@H]1CCOc2cc(S(=O)(=O)Nc3ccncn3)ccc21 (racemic)	> 10 µM
COCCc1cc(C(F)(F)F)ccc1[C@H]1CCOc2cc(S(=O)(=O)Nc3cccnn3)ccc21 (racemic)	> 10 µM
COCCOc1cc(C(F)(F)F)ccc1[C@H]1CCOc2cc(S(=O)(=O)Nc3ncc(F)cn3)ccc21 (racemic)	> 10 µM
O=C(O)c1ccc(-c2cc(C(F)(F)F)ccc2[C@H]2CCOc3cc(S(=O)(=O)Nc4cccc(F)n4)ccc32)cc1 (racemic)	> 10 µM
COCCc1cc(C(F)(F)F)ccc1[C@H]1CCOc2cc(S(=O)(=O)Nc3ncccn3)ccc21 (racemic)	> 10 µM
O=S(=O)(Nc1ncc(F)cn1)c1ccc2c(c1)OCC[C@@H]2c1ccc(C(F)(F)F)cc1CCF (racemic)	> 10 µM
O=C1OCCN1c1cc(C(F)(F)F)ccc1[C@H]1CCOc2cc(S(=O)(=O)Nc3ncc(F)cn3)ccc21 (racemic)	> 10 µM
O=C1CCCN1c1cc(C(F)(F)F)ccc1[C@H]1CCOc2cc(S(=O)(=O)Nc3cccnn3)ccc21 (racemic)	> 10 µM
O=C(O)c1ccc(-c2cc(C(F)(F)F)ccc2[C@H]2CCOc3cc(S(=O)(=O)Nc4cccnn4)ccc32)cc1 (racemic)	> 10 µM
COCCCOc1cc(C(F)(F)F)ccc1[C@H]1CCOc2cc(S(=O)(=O)Nc3ncc(F)cn3)ccc21 (racemic)	> 10 µM
COCCCCc1cc(C(F)(F)F)ccc1[C@H]1CCOc2cc(S(=O)(=O)Nc3ncc(F)cn3)ccc21 (racemic)	> 10 µM
O=S(=O)(Nc1ncc(F)cn1)c1ccc2c(c1)OCC[C@@H]2c1ccc(C(F)(F)F)cc1CCC(F)F (racemic)	> 10 µM
O=S(=O)(Nc1ncccn1)c1ccc2c(c1)OCC[C@@H]2c1ccc(C(F)(F)F)cc1Cl (racemic)	> 10 µM
O=C1OCCN1c1cc(C(F)(F)F)ccc1[C@H]1CCOc2cc(S(=O)(=O)Nc3ncccn3)ccc21 (racemic)	> 10 µM
O=C1CCCN1c1cc(C(F)(F)F)ccc1[C@H]1CCOc2cc(S(=O)(=O)Nc3ncccn3)ccc21 (racemic)	> 10 µM
O=S(=O)(Nc1ncc(F)cn1)c1ccc2c(c1)OCC[C@@H]2c1ccc(C(F)(F)F)cc1OC1COC1 (racemic)	> 10 µM
O=S(=O)(Nc1ccncn1)c1ccc2c(c1)OCC[C@@H]2c1ccc(C(F)(F)F)cc1CCF (racemic)	> 10 µM
O=C1OCCN1c1cc(C(F)(F)F)ccc1[C@H]1CCOc2cc(S(=O)(=O)Nc3cccc(F)n3)ccc21 (racemic)	> 10 µM
O=C1CCCN1c1cc(C(F)(F)F)ccc1[C@H]1CCOc2cc(S(=O)(=O)Nc3ccncn3)ccc21 (racemic)	> 10 µM
O=S(=O)(Nc1ncc(F)cn1)c1ccc2c(c1)OCC[C@@H]2c1ccc(C(F)(F)F)cc1Cl (racemic)	> 10 µM
COCCCc1cc(C(F)(F)F)ccc1[C@H]1CCOc2cc(S(=O)(=O)Nc3ncc(F)cn3)ccc21 (racemic)	> 10 µM
O=S(=O)(Nc1cccc(F)n1)c1ccc2c(c1)OCC[C@@H]2c1ccc(C(F)(F)F)cc1CCF (racemic)	> 10 µM
O=S(=O)(Nc1cccnn1)c1ccc2c(c1)OCC[C@@H]2c1ccc(C(F)(F)F)cc1Cl (racemic)	> 10 µM
